Results published in US20170080026A1, “METHOD AND COMPOUND FOR OPENING POTASSIUM CHANNELS OF MAMMAL VASCULAR SMOOTH MUSCLES IN A REMOTE CONTROL MANNER” (Tovaristvo Z Obmezhenou Vidpovidalnistu "Nanomedtrast", priority 2015, published 2017).
Read-outs that look alike come from different tables or passages of the source.

System: outgoing potassium current (IK) in rat thoracic aorta SM cells
Assay: Whole-cell outgoing K+ current (IK) recording in isolated thoracic aorta smooth muscle cells
Type: cell-based
Protocol: C, D show effects of potassium channel blockers (paxillin, 500 nM, and […] 10 mm) on the outgoing potassium current in smooth muscle cells of thoracic aorta not exposed to Au NPs (C) and exposed to Au NPs (D). Currents caused by single step excitations with an amplitude of 10 mV and 300 ms increments within −100 and +70 mV of outgoing potential at −60 mV.
Currents in each cell (except for leakage current) were converted into specific […], averaged and depicted versus membrane potential (mV). The data thus obtained were brought in consistency using the standard Boltzmann function with average parameters described herein. The resulting current-voltage characteristics (curves I-V) were obtained by measuring current at the end of an impulse. The data represent mean values of ±SEM (n=8).
For the purposes of the study, smooth muscle cells isolated from rat thoracic aorta using collagenase and pronase were taken. Rats were anesthetised with ketamine (37.5 mg/kg body weight, intraperitoneally) and xylazine (10 mg/kg body weight, intraperitoneally), and thoracic aorta about 1.0 . . . 1.5 cm long was removed and denuded to make it free from connective tissue. Aorta was cut into small pieces (1.5×1.5 mm) in the cooled low Ca^2+ ion content solution comprising (in mM): NaCl 140, KCl 6, MgCl2 3, D-glucose 10, HEPES 10 (pH 7.4) for 15 minutes. Vascular tissues were placed in fresh low Ca^2+ ion content solution comprising collagenase type IA 2 mg/mL (417 U/mg), pronase type E XXV 0.5 mg/ml, and bovine albumin serum 2 mg/ml. Then tissues were incubated for 30 minutes at a temperature of +37 ° C. After incubation, tissues were washed (for 2-3 minutes) twice in fresh low Ca^2+ ion content solution to remove enzymes. Cells were dispersed by stirring using a glass pipette and then placed in modified Krebs bicarbonate buffer. A certain number of muscle cells was maintained at a temperature of […] and remained functional for at least 4 hours. […]

Question: `CC[N+](CC)(CC)CC` [tetraethylammonium] was tested. Which “effect on Au NPs-induced IK increment” value did it give?
Answer: stopped Au NPs-induced IK increment

Question: What about the outgoing current of the same molecule?
Answer: 3±1 pA/pF

Question: For `CC(C)(O)[C@H]1O[C@H]2CC[C@@]3(C)[C@@](O)(CC[C@H]4Cc5c([nH]c6ccccc56)[C@@]43C)C2=CC1=O` [Paxillin, paxillin], which “effect on Au NPs-induced IK increment” value (SM cells exposed to Au NPs) is on record?
Answer: stopped Au NPs-induced IK increment
